This is an account of results in US9186337B2, “Lysine demethylase inhibitors for diseases and disorders associated with Hepadnaviridae” (Oryzon Genomics S.A., priority 2010, dated 2015).

pEC50, pIC50: −log10 of the molar value. Bounds are passed on as bounds.

The subject of data set [1] is hepatitis B virus (HBV) ayw strain. Nature of the data set: Anti-HBV assay with HepG2-2.2.15 cells (HBV DNA replication). The data set is classed as cell-based. The note with it: for Selectivity Index SI50: HepG2-2.2.15 cells; for pEC50: Hepatitis B virus, HepG2 2.2.15, read-out: Antiviral Activity EC50. On the procedure:
(§1) Anti-HBV assays were conducted at Southern Research Organization using an HBV DNA replicon with a luciferase reporter.
(§2) Southern Research reports HepG2-2.2.15 is a stable cell line containing the hepatitis B virus (HBV) ayw strain genome. Antiviral compounds blocking any late step of viral replication such as transcription, translation, pregenome encapsidation, reverse transcription, particle assembly and release can be identified and characterized using this cell line. Initially we test whether a compound will reduce the production of secreted HBV from cells utilizing our real time quantitative PCR (TaqMan) HBV DNA assay.

The nature of data set [2]: Cytotoxicity in anti-HBV assay. The data set is classed as cell-based. The following applies: human; HepG2-2.2.15 cells. On the procedure: as §1, §2
Data set [3] is described as follows: Maximum tolerated dose study in mice. The data set is classed as in vivo. The following applies: IP, 20, 40 and 60 mg/kg daily for 10 days. On the procedure:
(§3) Maximum tolerated dose studies and pharmacokinetics for several LSD1 inhibitors were assessed to determine if the compound can be administered to mammals safely at does that are expected to achieve therapeutic effects. In particular, compound X was given to mice IP at 20 mg/kg 40 mg/kg and 60 mg/kg daily for 10 days in a MTD study conducted at Leitat.

Data set [4] is described as follows: Pharmacokinetics (PK studies). Format: in vivo, mice. The following applies: at the MTD study doses, in words. The procedure: as §3

As usually defined, the pEC50 is −log10 of the EC50, conventionally taken in molar units. One may read the pIC50 as −log10 of the IC50, conventionally taken in molar units. Low readings indicate a high IC50, high ones a low IC50. `Nc1ccn([C@@H]2CS[C@H](CO)O2)c(=O)n1` (relative stereo) [Compound 3TC, (2R, cis)-4-amino-1-(2-hydroxymethyl-1,3-oxathiolan-5-yl)-(1H)-pyrimidin-2-one, reference compound]: in data set [1], the “Selectivity Index SI50” value is greater than 100 and the pEC50 was 8.00. For the same compound, the pIC50 in data set [2] is 4.22.
Regarding `NC1CC1c1ccc(-c2cccc(O)c2)cc1` (stereo not drawn) [Compound X], the “tolerability in MTD study” value in data set [3] was “tolerated with acceptable toxicity”. Moreover, the Cmax result in data set [4] is on record as “expected to result in therapeutic levels”. In addition, in data set [1], the “Selectivity Index SI50” value was found to be 26.8 and the negative-log EC50 (pEC50) is 5.65. Besides, the “activity in an HBV DNA replication assay” value in data set [1] (in words) is “low micromolar range”. The pIC50 in data set [2] is 4.26.
